Like-named read-outs stand apart in the source and are kept apart here.

For one data set, the system named is ‘Gala’ apple trees. The experiment in a line: Thinning and phytotoxicity of lipid, copper and their mixture (Example 5). It is filed as in vivo. To be noted: for Russet / Leaf damage / Thinning: ‘Gala’ apples, aqueous cupric sulfate, sprayed at 5% FB; for Russet: fruit russet at harvest. As to the method: Emulsion was prepared with glyceride type of lipids as in Example 2 and diluted to 2% active ingredients. Cupric sulfate was added to the diluted emulsion to give mixtures containing 0, 50, 100, and 150 g metallic copper per 100 L, respectively. Aqueous solutions containing 0, 50, 100, and 150 g metallic copper per 100 L were also prepared seperately. Emulsion and copper mixtures or cupric sulfate solutions were sprayed on 12 year-old ‘Gala’ apple trees at 5% FB. Each treatment consisted of 4 trees (replications) in a row (oriented from south to north) and 2 shoots (one from the east and another from the west side of the canopy) were selected from each of the 4 trees for evaluation. Fruit set was measured 2 months after FB and leaf damage were evaluated 1, 2, and 3 weeks after application. Fruit russet was assessed at harvest and return of bloom was evaluated the following season.

The next data set concerns peach trees. To be noted: cited from earlier work.
Data set [1] relates to ‘Feng Huang’ peaches, ‘Delicious’ apples, and ‘Bing’ cherries. The experiment in a line: Lipids and surfactants for bloom thinning, all cultivars of Example 4. Format: in vivo. To be noted: for damage to leaf buds: surfactant alone at 0.6% or 1%; for thinning effect: surfactant alone at the application rate (0.2%, 0.6%, 1%), sprayed at 5% full bloom. An excerpt: Fruit trees of ‘Feng Huang’ peaches, ‘Delicious’ apples, and ‘Bing’ cherries all were sprayed at 5% full bloom. Each treatment (plot) consisted of 4 trees, which received standard commercial management both before and after oil application.

The subject of the next data set is ‘Bing’ cherry trees. The experiment in a line: Lipids and surfactants for bloom thinning, fruit set and leaf bud damage (Example 4). Format: in vivo. To be noted: sprayed at 5% full bloom. An excerpt: (§1) […] Each treatment (plot) consisted of 4 trees, which received standard commercial management both before and after oil application.
The subject of the next data set is ‘Feng Huang’ peach. Described as above. It is filed as in vivo. To be noted: applied at 5% full bloom.
Excerpt: as §1

The subject of a further data set is ‘Delicious’ apple. The data set is described as above. Format: in vivo. To be noted: applied at 5% full bloom.

On to `O=S(=O)([O-])[O-].[Cu+2]` [Cupric sulfate], for which the thinning and phytotoxicity result with ‘Gala’ apple trees (‘Gala’ apple, 50, 100, 150 g metallic copper per 100 L) was “both thinning and phytotoxicity in a concentration dependent manner”. Also, the Russet in the data set on ‘Gala’ apple trees (50 g metallic copper/100 L) came out at 0%; in the data set with ‘Gala’ apple trees (100 g metallic copper/100 L), 35%; in the data set with ‘Gala’ apple trees (150 g metallic copper/100 L) it was 64%. Moreover, the results for the Leaf damage in the data set on ‘Gala’ apple trees (50 g metallic copper/100 L), with ‘Gala’ apple trees (100 g metallic copper/100 L) and with ‘Gala’ apple trees (150 g metallic copper/100 L) were 0%, 9% and 24%, respectively. In addition, the Thinning in the data set on ‘Gala’ apple trees (50 g metallic copper/100 L) turned out to be 87%; in the data set with ‘Gala’ apple trees (100 g metallic copper/100 L), 64%; with ‘Gala’ apple trees (150 g metallic copper/100 L), 43%.
As for “N,N-bis 2-[omega (hydroxypolyoxyethylene/polyoxypropylene)ethyl alkylamine] [Armothin]”, in the data set with peach trees (1%), the thinning effect result was “not effective thinners”.
As to TRITON X-100, the “damage to leaf buds” value in data set [1] is “caused some damage to leaf buds”. The thinning effect result in data set [1] is “not effective in thinning”. For the same compound, the Fruit set in the data set on ‘Bing’ cherry trees (surfactant solution 0.2%) came to 94%; with ‘Bing’ cherry trees (surfactant solution 0.6%) it was 83%; in the data set with ‘Bing’ cherry trees (surfactant solution 1.0%), 90%; in the data set with ‘Feng Huang’ peach (surfactant solution 0.2%) it was 41%; in the data set with ‘Feng Huang’ peach (surfactant solution 0.6%) it was 42%; with ‘Feng Huang’ peach (surfactant solution 1.0%), 38%. The Fruit set is recorded as 62% in the data set on ‘Delicious’ apple (surfactant solution 0.2%), 64% in the data set on ‘Delicious’ apple (surfactant solution 0.6%) and 69% in the data set on ‘Delicious’ apple (surfactant solution 1.0%). The leaf bud damage was 0% with ‘Bing’ cherry trees (surfactant solution 0.2%); 10% in the data set with ‘Bing’ cherry trees (surfactant solution 0.6%); 18% with ‘Bing’ cherry trees (surfactant solution 1.0%); 0% in the data set with ‘Feng Huang’ peach (surfactant solution 0.2%); 6% with ‘Feng Huang’ peach (surfactant solution 0.6%); 20% with ‘Feng Huang’ peach (surfactant solution 1.0%). Moreover, the leaf bud damage in the data set with ‘Delicious’ apple (surfactant solution 0.2%) is 0%; in the data set on ‘Delicious’ apple (surfactant solution 0.6%) it was 8%; in the data set on ‘Delicious’ apple (surfactant solution 1.0%) it was 15%.
As to TWEEN 60, the “damage to leaf buds” value in data set [1] is reported as “caused some damage to leaf buds”. In addition, the thinning effect result in data set [1] was “not effective in thinning”. The Fruit set in the data set with ‘Bing’ cherry trees (surfactant solution 0.2%) worked out at 96%; in the data set with ‘Bing’ cherry trees (surfactant solution 0.6%) it was 92%; in the data set with ‘Bing’ cherry trees (surfactant solution 1.0%) it was 87%; with ‘Feng Huang’ peach (surfactant solution 0.2%), 46%; with ‘Feng Huang’ peach (surfactant solution 0.6%) it was 42%; in the data set with ‘Feng Huang’ peach (surfactant solution 1.0%), 38%. For the same compound, the values for the Fruit set in the data set with ‘Delicious’ apple (surfactant solution 0.2%), with ‘Delicious’ apple (surfactant solution 0.6%) and with ‘Delicious’ apple (surfactant solution 1.0%) were 58%, 65% and 61%, respectively. For the same compound, the leaf bud damage worked out at 0% in the data set on ‘Bing’ cherry trees (surfactant solution 0.2%); 8% in the data set with ‘Bing’ cherry trees (surfactant solution 0.6%); 17% with ‘Bing’ cherry trees (surfactant solution 1.0%); 0% in the data set with ‘Feng Huang’ peach (surfactant solution 0.2%); 5% in the data set on ‘Feng Huang’ peach (surfactant solution 0.6%); 18% in the data set with ‘Feng Huang’ peach (surfactant solution 1.0%). The leaf bud damage is 0% with ‘Delicious’ apple (surfactant solution 0.2%), 7% in the data set on ‘Delicious’ apple (surfactant solution 0.6%) and 13% with ‘Delicious’ apple (surfactant solution 1.0%).
For alkaryl polyoxyethylene alcohols, the thinning effect entry in the data set on peach trees (2%) was “not effective thinners”.

Values taken from patent publication US20010039246A1, “Composition and method for early bloom thinning of fruit trees and controlling cracking of fruits” (priority 2000, published 2001).
